Tests used:
[1] = in animals as well as in humans; cited from earlier work
[2] = adrenalin alone 30 μg/kg intramuscular, anesthetized rabbits
[3] = adrenalin alone 30 μg/kg intramuscular, anesthetized rabbits; remark: listed apart in the source

AUC of second plasma adrenalin peak relative to the first one [3]: about 20 times | time of first narrow peak in plasma adrenalin level [3]: a few minutes following the injection | time of second, much larger peak in plasma adrenalin level ([3]; later than first peak): 20 min
SMILES: CNC[C@H](O)c1ccc(O)c(O)c1 [adrenalin]
delay of the bulk of the increase in plasma levels of adrenalin after injection [1]: about 20 minutes | hypertensive episodes [2]: two hypertensive episodes occurred at the times of the plasma adrenalin peaks

— patent US10952987B2 (BIOPROJET, priority 2012, dated 2021)
